77 sequences from the supplement of paper PMC11208160 can be followed below.
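Further: IS621 recombinase and bridge RNA in Escherichia coli cells.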

This data set in a line: recombinant barcode read abundance after kanamycin selection (control-corrected) (log10(CPM+1)); higher = more efficient recombination; sequences stand for … in AGTGCAGAGAAAATCGGCCAGTTTTCTCTGCCTGCAGTCCGCATGCCGT…AGATTTATGCAGCGGACTGCCTTTCTCCCAAAGTGATAAACCGGACAGTATCATGGACCGGTTTTCCCGGTAATCCGTATTTGCAAGGTTGGTTTCACT; site = the 11-nt target. The essentials: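 Recombination efficiency was calculated from barcode counts at recombinant junctions, normalized to counts per million, averaged and corrected by the control. Each value is given as log10(CPM+1). The constructs were Gibson-cloned oligos (promoter, target, barcode, J23119-driven first 104 bridge RNA bases) in a vector with the remaining 73 bp and a T7-inducible recombinase, co-electroporated into E. coli with a donor plasmid and plated in duplicate on chloramphenicol/ampicillin LB agar (control) or chloramphenicol/ampicillin/kanamycin with 0.1 mM IPTG.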
Take “AGCGAATCTTGGGTTCTAACCTGTTGCCT (site AGCGAATCTAG)”: the “recombinant barcode read abundance (log10)” value was 0.719.

Consider “AGCGAATCTTGGGTTCTAACCTGTTGCCT (site AGGGAATCTAG)”, for which the “recombinant barcode read abundance (log10)” value stood at 0.323.

In the case of “AGCGAATCTTGGGTTCTAACCTGTTGCCT (site AGTGAATCTAG)”, the “recombinant barcode read abundance (log10)” value turned out to be 0.158.

Turning to “AGCGACCCTTGGGTTCTAACCTGTTGCGT (site AGCGACCCTAC)”, the “recombinant barcode read abundance (log10)” value came out at 3.18.

As for “AGCGACCCTTGGGTTCTAACCTGTTGCGT (site CGCGATCCTAC)”, the “recombinant barcode read abundance (log10)” value turned out to be 0.16.

“AGCGAGTCTTGGGTTCTAACCTGTTGCCT (site AACGAGTCTAG)”: the “recombinant barcode read abundance (log10)” value stood at 0.951.

As for “AGCGAGTCTTGGGTTCTAACCTGTTGCCT (site ACCGAGTCTAG)”, the “recombinant barcode read abundance (log10)” value worked out at 0.817.

On to “AGCGAGTCTTGGGTTCTAACCTGTTGCCT (site AGCGAGTCTAG)”, for which the “recombinant barcode read abundance (log10)” value was determined as 2.08.

In the case of “AGCGAGTCTTGGGTTCTAACCTGTTGCCT (site ATCGAGTCTAG)”, the “recombinant barcode read abundance (log10)” value amounted to 0.465.

“AGCGCTACTTGGGTTCTAACCTGTTGCCT (site ACCGCTACTAG)”: the “recombinant barcode read abundance (log10)” value was found to be 0.121.

As for “AGCGCTACTTGGGTTCTAACCTGTTGCCT (site AGCGCTACTAG)”, the “recombinant barcode read abundance (log10)” value was found to be 0.145.

Regarding “AGCTAACCTTGGGTTCTAACCTGTTGCCT (site AGCTAACCTAG)”, the “recombinant barcode read abundance (log10)” value came out at 0.407.

“AGCTAACCTTGGGTTCTAACCTGTTGCCT (site AGTGAACCTAG)”: the “recombinant barcode read abundance (log10)” value amounted to 0.127.

On to “AGCTACCCTTGGGTTCTAACCTGTTGCTT (site ACCTACTCTAA)”, for which the “recombinant barcode read abundance (log10)” value was 0.0582.

Consider “AGCTACCCTTGGGTTCTAACCTGTTGCTT (site AGCTACCCTAA)”, for which the “recombinant barcode read abundance (log10)” value was 0.62.

On to “AGCTCCTCTTGGGTTCTAACCTGTTGCCT (site AGCTCCTCTAG)”, for which the “recombinant barcode read abundance (log10)” value is 0.0883.

As for “AGCTCCTCTTGGGTTCTAACCTGTTGCCT (site CGCTCCTCTAG)”, the “recombinant barcode read abundance (log10)” value turned out to be 0.144.

With “AGCTCCTCTTGGGTTCTAACCTGTTGCCT (site GGCTCCTCTAG)”, the “recombinant barcode read abundance (log10)” value is 0.0482.

As for “AGCTCCTCTTGGGTTCTAACCTGTTGCCT (site TGCTCCTCTAG)”, the “recombinant barcode read abundance (log10)” value was found to be 0.0453.

Take “AGCTCGTCTTGGGTTCTAACCTGTTGCGG (site AGCTCGTCTCC)”: the “recombinant barcode read abundance (log10)” value was 0.448.

Take “AGCTCGTCTTGGGTTCTAACCTGTTGCGG (site AGTTCGTCTCG)”: the “recombinant barcode read abundance (log10)” value is 0.191.

With “AGCTGGGCTTGGGTTCTAACCTGTTGCCT (site AACTGGGCTAG)”, the “recombinant barcode read abundance (log10)” value was determined as 0.0885.

Consider “AGCTGGGCTTGGGTTCTAACCTGTTGCCT (site ACCTGGGCTAG)”, for which the “recombinant barcode read abundance (log10)” value stood at 0.101.

Consider “AGCTGGGCTTGGGTTCTAACCTGTTGCCT (site AGCTGGGCTAG)”, for which the “recombinant barcode read abundance (log10)” value was 0.235.

For the sequence “AGCTGGGCTTGGGTTCTAACCTGTTGCCT (site ATCTGGGCTAG)”, the “recombinant barcode read abundance (log10)” value is 0.11.

Turning to “AGCTTATCTTGGGTTCTAACCTGTTGCCT (site AGCTAAACTAG)”, the “recombinant barcode read abundance (log10)” value turned out to be 0.131.

With “AGCTTATCTTGGGTTCTAACCTGTTGCCT (site AGCTTATCTAG)”, the “recombinant barcode read abundance (log10)” value worked out at 0.179.

On to “AGGAACACTTGGGTTCTAACCTGTTGCTT (site AGGAACACTAA)”, for which the “recombinant barcode read abundance (log10)” value was determined as 1.56.

With “AGGAACACTTGGGTTCTAACCTGTTGCTT (site AGGAACACTCA)”, the “recombinant barcode read abundance (log10)” value turned out to be 0.279.

With “AGGAACCCTTGGGTTCTAACCTGTTGCTT (site AGGAACCCTAA)”, the “recombinant barcode read abundance (log10)” value was 0.911.

Take “AGGAACCCTTGGGTTCTAACCTGTTGCTT (site AGGAACCCTCA)”: the “recombinant barcode read abundance (log10)” value worked out at 0.328.

With “AGGAACCCTTGGGTTCTAACCTGTTGCTT (site AGGAACCCTGA)”, the “recombinant barcode read abundance (log10)” value stood at 0.127.

As for “AGGAACCCTTGGGTTCTAACCTGTTGCTT (site AGGAACCCTTA)”, the “recombinant barcode read abundance (log10)” value amounted to 0.256.

Take “AGGAAGACTTGGGTTCTAACCTGTTGCGG (site AGGAAGACTCC)”: the “recombinant barcode read abundance (log10)” value worked out at 3.01.

Consider “AGGAAGACTTGGGTTCTAACCTGTTGCGG (site AGGAAGACTCG)”, for which the “recombinant barcode read abundance (log10)” value was 0.25.

In the case of “AGGAAGGCTTGGGTTCTAACCTGTTGCCA (site AGGAAGGCTTG)”, the “recombinant barcode read abundance (log10)” value was found to be 0.693.

For the sequence “AGGAAGGCTTGGGTTCTAACCTGTTGCCA (site GACGTAACTCT)”, the “recombinant barcode read abundance (log10)” value worked out at 0.145.

For “AGGACTACTTGGGTTCTAACCTGTTGCCT (site AGAACTACTAG)”, the “recombinant barcode read abundance (log10)” value was 0.217.

For “AGGACTACTTGGGTTCTAACCTGTTGCCT (site AGGACTACTAG)”, the “recombinant barcode read abundance (log10)” value is 1.3.

“AGGAGAGCTTGGGTTCTAACCTGTTGCTT (site AGGAGAGCTAA)”: the “recombinant barcode read abundance (log10)” value turned out to be 1.13.

On to “AGGAGAGCTTGGGTTCTAACCTGTTGCTT (site CTAGCGACTGT)”, for which the “recombinant barcode read abundance (log10)” value amounted to 0.0392.

Consider “AGGAGCCCTTGGGTTCTAACCTGTTGCCA (site AGGAGCCCTAG)”, for which the “recombinant barcode read abundance (log10)” value came to 0.408.

Take “AGGAGCCCTTGGGTTCTAACCTGTTGCCA (site AGGAGCCCTTG)”: the “recombinant barcode read abundance (log10)” value was determined as 0.841.

As for “AGGAGCCCTTGGGTTCTAACCTGTTGCTA (site AGGAGCCCTAA)”, the “recombinant barcode read abundance (log10)” value came out at 0.0121.

As for “AGGAGCCCTTGGGTTCTAACCTGTTGCTA (site AGGAGCCCTCA)”, the “recombinant barcode read abundance (log10)” value worked out at 0.165.

For the sequence “AGGAGCCCTTGGGTTCTAACCTGTTGCTA (site AGGAGCCCTGA)”, the “recombinant barcode read abundance (log10)” value worked out at 0.0798.

“AGGAGCCCTTGGGTTCTAACCTGTTGCTA (site AGGAGCCCTTA)”: the “recombinant barcode read abundance (log10)” value worked out at 1.38.

As to “AGGATAGCTTGGGTTCTAACCTGTTGCGG (site AGGATAGCTCC)”, the “recombinant barcode read abundance (log10)” value was found to be 2.18.

Take “AGGATAGCTTGGGTTCTAACCTGTTGCGG (site AGTCTAGCTCC)”: the “recombinant barcode read abundance (log10)” value amounted to 0.102.

Take “AGGATAGCTTGGGTTCTAACCTGTTGCTG (site AGAATAGCTCT)”: the “recombinant barcode read abundance (log10)” value stood at 0.148.

Consider “AGGATAGCTTGGGTTCTAACCTGTTGCTG (site AGGATAGCTCA)”, for which the “recombinant barcode read abundance (log10)” value was 1.45.

For the sequence “AGGATCCCTTGGGTTCTAACCTGTTGCAG (site AGGATCCCTAT)”, the “recombinant barcode read abundance (log10)” value amounted to 0.701.

With “AGGATCCCTTGGGTTCTAACCTGTTGCAG (site AGGATCCCTCT)”, the “recombinant barcode read abundance (log10)” value turned out to be 2.31.

Regarding “AGGCCCGCTTGGGTTCTAACCTGTTGCGG (site AGGCCCGCTCC)”, the “recombinant barcode read abundance (log10)” value is 0.794.

For the sequence “AGGCCCGCTTGGGTTCTAACCTGTTGCGG (site GTAAGATCTGT)”, the “recombinant barcode read abundance (log10)” value amounted to 0.186.

Consider “AGGCGCCCTTGGGTTCTAACCTGTTGCAG (site AGGCGCCCTAT)”, for which the “recombinant barcode read abundance (log10)” value was found to be 0.185.

Regarding “AGGCGCCCTTGGGTTCTAACCTGTTGCAG (site AGGCGCCCTCT)”, the “recombinant barcode read abundance (log10)” value came out at 1.4.

Regarding “AGGCGCCCTTGGGTTCTAACCTGTTGCAG (site AGGCGCCCTGT)”, the “recombinant barcode read abundance (log10)” value turned out to be 0.0789.

With “AGGCGCCCTTGGGTTCTAACCTGTTGCAG (site AGGCGCCCTTT)”, the “recombinant barcode read abundance (log10)” value worked out at 0.122.

As to “AGGCGTCCTTGGGTTCTAACCTGTTGCCC (site AGGCGTCCTAG)”, the “recombinant barcode read abundance (log10)” value came to 0.417.

As to “AGGCGTCCTTGGGTTCTAACCTGTTGCCC (site AGGCGTCCTCG)”, the “recombinant barcode read abundance (log10)” value was determined as 0.0817.

As to “AGGCGTCCTTGGGTTCTAACCTGTTGCCC (site AGGCGTCCTGG)”, the “recombinant barcode read abundance (log10)” value amounted to 1.78.

For “AGGCGTCCTTGGGTTCTAACCTGTTGCCC (site AGGCGTCCTTG)”, the “recombinant barcode read abundance (log10)” value was determined as 0.211.

Consider “AGGCTGCCTTGGGTTCTAACCTGTTGCCT (site AGGCTGACTAG)”, for which the “recombinant barcode read abundance (log10)” value worked out at 0.126.

In the case of “AGGCTGCCTTGGGTTCTAACCTGTTGCCT (site AGGCTGCCTAG)”, the “recombinant barcode read abundance (log10)” value stood at 0.867.

Consider “AGGCTGCCTTGGGTTCTAACCTGTTGCCT (site AGGCTGGCTAG)”, for which the “recombinant barcode read abundance (log10)” value came out at 0.0502.

In the case of “AGGCTGCCTTGGGTTCTAACCTGTTGCCT (site AGGCTGTCTAG)”, the “recombinant barcode read abundance (log10)” value is 0.494.

As for “AGGCTGGCTTGGGTTCTAACCTGTTGCCT (site AGGCTGACTAG)”, the “recombinant barcode read abundance (log10)” value was 0.511.

On to “AGGCTGGCTTGGGTTCTAACCTGTTGCCT (site AGGCTGCCTAG)”, for which the “recombinant barcode read abundance (log10)” value amounted to 0.0205.

As to “AGGCTGGCTTGGGTTCTAACCTGTTGCCT (site AGGCTGGCTAG)”, the “recombinant barcode read abundance (log10)” value was 0.482.

“AGGCTGGCTTGGGTTCTAACCTGTTGCCT (site AGGCTGTCTAG)”: the “recombinant barcode read abundance (log10)” value worked out at 0.166.

With “AGGGACCCTTGGGTTCTAACCTGTTGCCT (site AGGGACCCTAG)”, the “recombinant barcode read abundance (log10)” value was found to be 2.62.

“AGGGACCCTTGGGTTCTAACCTGTTGCCT (site TCTTGGACTGT)”: the “recombinant barcode read abundance (log10)” value turned out to be 0.0407.

With “AGGGCAGCTTGGGTTCTAACCTGTTGCCT (site AGGGAAGCTAG)”, the “recombinant barcode read abundance (log10)” value came out at 0.135.

Turning to “AGGGCAGCTTGGGTTCTAACCTGTTGCCT (site AGGGCAGCTAG)”, the “recombinant barcode read abundance (log10)” value was 0.305.

“AGGGCAGCTTGGGTTCTAACCTGTTGCCT (site AGGGGAGCTAG)”: the “recombinant barcode read abundance (log10)” value turned out to be 0.0111.

With “AGGGCAGCTTGGGTTCTAACCTGTTGCCT (site AGGGTAGCTAG)”, the “recombinant barcode read abundance (log10)” value amounted to 0.0905.
